Laboratory results taken from paper PMC6691788, “Design and synthesis of phthalazine-based compounds as potent anticancer agents with potential antiangiogenic activity via VEGFR-2 inhibition” (Journal of Enzyme Inhibition and Medicinal Chemistry, 2019).

What was measured:
NCI-H226 = assay: NCI 60 cell panel SRB screen; assay type: cell-based; conditions: Homo sapiens; NCI-H226, single dose 10 μM; read-out: percent cell growth promotion
SNB-19 = assay: NCI 60 cell panel SRB screen; assay type: cell-based; conditions: Homo sapiens; SNB-19, single dose 10 μM; read-out: percent cell growth promotion
NCI-H23 = assay: NCI 60 cell panel SRB screen; assay type: cell-based; conditions: Homo sapiens; NCI-H23, single dose 10 μM; read-out: percent cell growth promotion
SK-OV-3 = assay: NCI 60 cell panel SRB screen; assay type: cell-based; conditions: Homo sapiens; SK-OV-3, single dose 10 μM; read-out: percent cell growth promotion
IGROV1 = assay: NCI 60 cell panel SRB screen; assay type: cell-based; conditions: Homo sapiens, IGROV-1; IGROV1, single dose 10 μM; read-out: percent cell growth promotion
NCI-H460 = assay: NCI 60 cell panel SRB screen; assay type: cell-based; conditions: Homo sapiens; NCI-H460, single dose 10 μM; read-out: percent cell growth promotion
CAKI-1 = assay: NCI 60 cell panel SRB screen; assay type: cell-based, human; conditions: Homo sapiens; CAKI-1, single dose 10 μM; read-out: percent cell growth promotion
NCI/ADR-RES = assay: NCI 60 cell panel SRB screen; assay type: cell-based; conditions: Homo sapiens, single dose 10 μM, read-out: percent cell growth promotion
T-47D = assay: NCI 60 cell panel SRB screen; assay type: cell-based; conditions: Homo sapiens, T47D, read-out: percent cell growth promotion
full NCI 60 cell panel = assay: NCI 60 cell panel SRB screen, whole panel; assay type: cell-based, human; conditions: for activity at 10 µM: Homo sapiens, 60 cell, mean over the panel, single dose 10 μM, read-out: Mean percent cell growth promotion; for cell growth inhibition, in words: single dose 10 µM
PC-3 = assay: NCI 60 cell panel SRB screen; assay type: cell-based; conditions: Homo sapiens; PC-3, single dose 10 μM; read-out: percent cell growth promotion
SN12C = assay: NCI 60 cell panel SRB screen; assay type: cell-based; conditions: Homo sapiens, single dose 10 μM, read-out: percent cell growth promotion
HL-60(TB) = assay: NCI 60 cell panel SRB screen; assay type: cell-based; conditions: Homo sapiens, single dose 10 μM, read-out: percent cell growth promotion
U251 = assay: NCI 60 cell panel SRB screen; assay type: cell-based; conditions: Homo sapiens, U-251; U251, single dose 10 μM; read-out: percent cell growth promotion
RXF 393 = assay: NCI 60 cell panel SRB screen; assay type: cell-based; conditions: Homo sapiens; RXF 393, single dose 10 μM; read-out: percent cell growth promotion
ACHN = assay: NCI 60 cell panel SRB screen; assay type: cell-based; conditions: Homo sapiens, single dose 10 μM, read-out: percent cell growth promotion
SNB-75 = assay: NCI 60 cell panel SRB screen; assay type: cell-based; conditions: Homo sapiens; SNB-75, single dose 10 μM; read-out: percent cell growth promotion
OVCAR-5 = assay: NCI 60 cell panel SRB screen; assay type: cell-based; conditions: Homo sapiens; OVCAR-5, single dose 10 μM; read-out: percent cell growth promotion
SK-MEL-28 = assay: NCI 60 cell panel SRB screen; assay type: cell-based; conditions: Homo sapiens, SK-MEL-28, read-out: percent cell growth promotion

`Cc1nnc(N2CCN(c3ccccc3)CC2)c2ccccc12` [Compound 8g, 1-Methyl-4–(4-phenylpiperazin-1-yl)phthalazine] gave an activity at 10 µM (NCI-H226) of 95.2%, an activity at 10 µM (SNB-19) of 105% and an activity at 10 µM (NCI-H23) of 103%. It also gave an activity at 10 µM (SK-OV-3) of 96.5%, an activity at 10 µM (IGROV1) of 112% and an activity at 10 µM (NCI-H460) of 105%. It also gave an activity at 10 µM (CAKI-1) of 95.3%, an activity at 10 µM (NCI/ADR-RES) of 107% and an activity at 10 µM (T-47D) of 90.5%. For the same molecule, the activity at 10 µM (full NCI 60 cell panel) was 102%, the “cell growth inhibition, in words” value (full NCI 60 cell panel) was “nor the piperazines (8a, 8d, 8f, 8g, 8h and 8i) showed any significant cell line growth inhibition” and the activity at 10 µM (PC-3) was 99.4%. The activity at 10 µM (SN12C) was 100%, the activity at 10 µM (HL-60(TB)) was 103% and the activity at 10 µM (U251) was 96.7%. The activity at 10 µM (RXF 393) was 105%, the activity at 10 µM (ACHN) was 100% and the activity at 10 µM (SNB-75) was 98.1%. The activity at 10 µM (OVCAR-5) was 98.2% and the activity at 10 µM (SK-MEL-28) was 109%.
With `Cc1nnc(N2CCN(c3ccccc3F)CC2)c2ccccc12` [Compound 8h, 1–(4-(2-Fluorophenyl)piperazin-1-yl)-4-methylphthalazine] the activity at 10 µM (NCI-H226) was 90.1%, the activity at 10 µM (SNB-19) was 99.9% and the activity at 10 µM (NCI-H23) was 101%. For the same molecule, the activity at 10 µM (SK-OV-3) was 105%, the activity at 10 µM (IGROV1) was 109% and the activity at 10 µM (NCI-H460) was 101%. It also gave an activity at 10 µM (CAKI-1) of 86.8%, an activity at 10 µM (NCI/ADR-RES) of 96.9% and an activity at 10 µM (T-47D) of 82.3%. For the same molecule, the activity at 10 µM (full NCI 60 cell panel) was 99%, the “cell growth inhibition, in words” value (full NCI 60 cell panel) was “nor the piperazines (8a, 8d, 8f, 8g, 8h and 8i) showed any significant cell line growth inhibition” and the activity at 10 µM (PC-3) was 99%. The activity at 10 µM (SN12C) was 100%, the activity at 10 µM (HL-60(TB)) was 110% and the activity at 10 µM (U251) was 96.2%. The activity at 10 µM (RXF 393) was 99.8%, the activity at 10 µM (ACHN) was 98.4% and the activity at 10 µM (SNB-75) was 109%. The activity at 10 µM (OVCAR-5) was 87.9% and the activity at 10 µM (SK-MEL-28) was 104%.
